{"source": "ChEMBL document CHEMBL1152690", "about": "“The spirocyclopropyl moiety as a methyl surrogate in the structure of l-fucosidase and l-rhamnosidase inhibitors” (Bioorg Med Chem, 2009)", "note": "The source made the active and inactive calls. The calls are words filed in the database; no cut-off is given here.", "data": [{"system": "Prunus dulcis", "assay": "Inhibition of almond beta-glucosidase at 1 mM", "conditions": "not given", "values": [{"smiles": "O[C@@H]1[C@@H](O)C2(CC2)NC[C@@H]1O", "inhibition": "inactive"}, {"smiles": "O[C@H]1[C@H](O)CNC2(CC2)[C@H]1O", "inhibition": "inactive"}, {"smiles": "O[C@H]1C=NC2(CC2)[C@H]1O", "inhibition": "inactive"}, {"smiles": "O[C@@H]1[C@@H](O)C=NC12CC2", "inhibition": "inactive"}]}, {"target": "T1, Tissue alpha-L-fucosidase (Bos taurus) (UniProt Q2KIM0)", "T1 sequence (whole entry)": "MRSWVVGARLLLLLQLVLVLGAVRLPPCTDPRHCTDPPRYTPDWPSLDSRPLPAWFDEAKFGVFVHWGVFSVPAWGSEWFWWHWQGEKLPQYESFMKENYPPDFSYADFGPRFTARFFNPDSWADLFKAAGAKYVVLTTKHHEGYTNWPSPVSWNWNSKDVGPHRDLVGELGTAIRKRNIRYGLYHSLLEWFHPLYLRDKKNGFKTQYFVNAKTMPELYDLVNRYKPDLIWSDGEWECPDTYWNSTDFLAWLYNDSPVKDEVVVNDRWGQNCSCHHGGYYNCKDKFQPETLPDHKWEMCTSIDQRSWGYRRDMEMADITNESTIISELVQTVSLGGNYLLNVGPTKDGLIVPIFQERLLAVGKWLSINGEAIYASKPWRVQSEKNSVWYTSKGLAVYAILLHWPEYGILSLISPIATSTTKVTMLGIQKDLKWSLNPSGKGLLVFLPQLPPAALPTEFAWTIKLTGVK", "assay": "Inhibition of bovine kidney alpha-L-fucosidase at 1 mM by para-nitrophenolate release assay", "conditions": "not given", "values": [{"smiles": "O[C@@H]1[C@@H](O)C2(CC2)NC[C@@H]1O", "inhibition": "inactive"}, {"smiles": "O[C@H]1[C@H](O)CNC2(CC2)[C@H]1O", "inhibition": "83%"}, {"smiles": "O[C@H]1C=NC2(CC2)[C@H]1O", "inhibition": "76%"}, {"smiles": "C[C@H]1NC[C@H](O)[C@H](O)[C@H]1O", "inhibition": "99%"}, {"smiles": "O[C@@H]1[C@@H](O)C=NC12CC2", "inhibition": "19%"}]}, {"system": "Canavalia ensiformis", "assay": "Inhibition of jack bean alpha-mannosidase at 1 mM", "conditions": "not given", "values": [{"smiles": "O[C@@H]1[C@@H](O)C2(CC2)NC[C@@H]1O", "inhibition": "inactive"}, {"smiles": "O[C@H]1[C@H](O)CNC2(CC2)[C@H]1O", "inhibition": "inactive"}, {"smiles": "O[C@H]1C=NC2(CC2)[C@H]1O", "inhibition": "inactive"}, {"smiles": "O[C@@H]1[C@@H](O)C=NC12CC2", "inhibition": "inactive"}]}, {"system": "Saccharomyces cerevisiae", "assay": "Inhibition of yeast alpha-glucosidase at 1 mM", "conditions": "not given", "values": [{"smiles": "O[C@@H]1[C@@H](O)C2(CC2)NC[C@@H]1O", "inhibition": "inactive"}, {"smiles": "O[C@H]1[C@H](O)CNC2(CC2)[C@H]1O", "inhibition": "inactive"}, {"smiles": "O[C@H]1C=NC2(CC2)[C@H]1O", "inhibition": "inactive"}, {"smiles": "O[C@@H]1[C@@H](O)C=NC12CC2", "inhibition": "inactive"}]}, {"system": "Helix pomatia", "assay": "Inhibition of snail beta-mannosidase at 1 mM", "conditions": "not given", "values": [{"smiles": "O[C@@H]1[C@@H](O)C2(CC2)NC[C@@H]1O", "inhibition": "inactive"}, {"smiles": "O[C@H]1[C@H](O)CNC2(CC2)[C@H]1O", "inhibition": "inactive"}, {"smiles": "O[C@H]1C=NC2(CC2)[C@H]1O", "inhibition": "inactive"}, {"smiles": "O[C@@H]1[C@@H](O)C=NC12CC2", "inhibition": "inactive"}]}, {"target": "not listed separately", "assay": "Inhibition of Penicillium decumbens Alpha-L-rhamnosidase by para-nitrophenolate release assay", "conditions": "not given", "units": {"Ki": "µM"}, "values": [{"smiles": "C[C@@H]1N=C[C@H](O)[C@H]1O", "Ki": 0.14}, {"smiles": "COc1ccc(C[C@@H]2NC[C@H](O)[C@H]2O)cc1", "Ki": 3}, {"smiles": "C[C@@H]1C[C@H](O)C2[C@@H](O)[C@@H](O)CN2C1", "note": "(single isomer, unassigned)", "Ki": 0.03}, {"smiles": "O[C@H]1C=NC2(CC2)[C@H]1O", "Ki": 57}, {"smiles": "C[C@@H]1NC[C@H](O)[C@H]1O", "Ki": 5.5}, {"smiles": "C[C@H]1NC[C@H](O)[C@H](O)[C@H]1O", "Ki": 1}, {"smiles": "COc1ccc(C[C@@H]2NC[C@@H](O)[C@H]2O)cc1", "Ki": 3.2}]}, {"system": "Oryza sativa", "assay": "Inhibition of rice alpha-glucosidase at 1 mM", "conditions": "not given", "values": [{"smiles": "O[C@@H]1[C@@H](O)C2(CC2)NC[C@@H]1O", "inhibition": "inactive"}, {"smiles": "O[C@H]1[C@H](O)CNC2(CC2)[C@H]1O", "inhibition": "inactive"}, {"smiles": "O[C@H]1C=NC2(CC2)[C@H]1O", "inhibition": "inactive"}, {"smiles": "O[C@@H]1[C@@H](O)C=NC12CC2", "inhibition": "inactive"}]}, {"system": "Aspergillus niger", "assay": "Inhibition of Aspergillus niger beta-xylosidase at 1 mM", "conditions": "not given", "values": [{"smiles": "O[C@@H]1[C@@H](O)C2(CC2)NC[C@@H]1O", "inhibition": "inactive"}, {"smiles": "O[C@H]1[C@H](O)CNC2(CC2)[C@H]1O", "inhibition": "inactive"}, {"smiles": "O[C@H]1C=NC2(CC2)[C@H]1O", "inhibition": "inactive"}, {"smiles": "O[C@@H]1[C@@H](O)C=NC12CC2", "inhibition": "inactive"}]}, {"system": "Penicillium decumbens", "assay": "Inhibition of Penicillium decumbens lysosomal Alpha-L-rhamnosidase at 1 mM by para-nitrophenolate release assay", "conditions": "not given", "values": [{"smiles": "C[C@@H]1NC[C@H](O)[C@H](O)[C@H]1O", "inhibition": "inactive"}]}, {"system": "Coffea arabica", "assay": "Inhibition of coffee bean alpha-galactosidase at 1 mM", "conditions": "not given", "values": [{"smiles": "O[C@@H]1[C@@H](O)C2(CC2)NC[C@@H]1O", "inhibition": "inactive"}, {"smiles": "O[C@H]1[C@H](O)CNC2(CC2)[C@H]1O", "inhibition": "inactive"}, {"smiles": "O[C@H]1C=NC2(CC2)[C@H]1O", "inhibition": "inactive"}, {"smiles": "O[C@@H]1[C@@H](O)C=NC12CC2", "inhibition": "inactive"}]}, {"target": "Beta-galactosidase (Escherichia coli) (UniProt Q8VNN2)", "sequence (Q8VNN2 whole entry, looked up)": "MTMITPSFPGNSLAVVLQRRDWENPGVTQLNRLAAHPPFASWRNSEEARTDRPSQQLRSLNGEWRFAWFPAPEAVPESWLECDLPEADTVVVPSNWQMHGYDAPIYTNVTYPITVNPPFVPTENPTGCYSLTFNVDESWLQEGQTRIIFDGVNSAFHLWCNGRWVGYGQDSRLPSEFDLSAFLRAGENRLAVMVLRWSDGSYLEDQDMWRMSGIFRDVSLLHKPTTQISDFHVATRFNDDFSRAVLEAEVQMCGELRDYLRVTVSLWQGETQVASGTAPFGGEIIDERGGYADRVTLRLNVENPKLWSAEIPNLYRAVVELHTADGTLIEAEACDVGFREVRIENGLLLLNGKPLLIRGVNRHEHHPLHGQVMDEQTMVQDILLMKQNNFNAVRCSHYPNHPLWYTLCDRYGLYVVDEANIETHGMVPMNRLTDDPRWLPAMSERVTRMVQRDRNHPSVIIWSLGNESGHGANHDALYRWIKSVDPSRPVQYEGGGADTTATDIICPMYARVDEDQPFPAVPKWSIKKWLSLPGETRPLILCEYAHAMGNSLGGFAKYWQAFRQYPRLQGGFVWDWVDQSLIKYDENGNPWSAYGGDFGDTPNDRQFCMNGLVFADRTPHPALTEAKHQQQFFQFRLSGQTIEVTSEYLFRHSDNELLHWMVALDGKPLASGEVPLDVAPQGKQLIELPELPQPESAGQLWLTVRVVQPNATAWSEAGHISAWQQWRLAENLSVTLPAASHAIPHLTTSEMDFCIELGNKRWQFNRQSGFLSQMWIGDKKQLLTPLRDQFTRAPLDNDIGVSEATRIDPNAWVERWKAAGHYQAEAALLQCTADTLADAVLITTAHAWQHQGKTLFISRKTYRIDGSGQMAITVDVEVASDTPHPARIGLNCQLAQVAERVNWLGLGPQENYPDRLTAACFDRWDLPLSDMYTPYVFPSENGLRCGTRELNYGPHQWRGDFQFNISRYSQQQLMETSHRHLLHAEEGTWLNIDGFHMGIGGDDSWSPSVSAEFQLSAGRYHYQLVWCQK", "assay": "Inhibition of Escherichia coli beta-galactosidase at 1 mM", "conditions": "not given", "values": [{"smiles": "O[C@@H]1[C@@H](O)C2(CC2)NC[C@@H]1O", "inhibition": "inactive"}, {"smiles": "O[C@H]1[C@H](O)CNC2(CC2)[C@H]1O", "inhibition": "inactive"}, {"smiles": "O[C@H]1C=NC2(CC2)[C@H]1O", "inhibition": "inactive"}, {"smiles": "O[C@@H]1[C@@H](O)C=NC12CC2", "inhibition": "inactive"}]}, {"system": "Penicillium decumbens", "assay": "Inhibition of Penicillium decumbens Alpha-L-rhamnosidase at 1 mM by para-nitrophenolate release assay", "conditions": "not given", "values": [{"smiles": "O[C@@H]1[C@@H](O)C2(CC2)NC[C@@H]1O", "inhibition": "72%"}, {"smiles": "O[C@H]1[C@H](O)CNC2(CC2)[C@H]1O", "inhibition": "inactive"}, {"smiles": "O[C@H]1C=NC2(CC2)[C@H]1O", "inhibition": "87%"}, {"smiles": "C[C@@H]1NC[C@H](O)[C@H](O)[C@H]1O", "inhibition": "0%"}, {"smiles": "O[C@@H]1[C@@H](O)C=NC12CC2", "inhibition": "72%"}]}, {"organism": "Bos taurus", "assay": "Inhibition of bovine kidney beta-N-acetylglucosaminidase at 1 mM", "conditions": "not given", "values": [{"smiles": "O[C@@H]1[C@@H](O)C2(CC2)NC[C@@H]1O", "inhibition": "inactive"}, {"smiles": "O[C@H]1[C@H](O)CNC2(CC2)[C@H]1O", "inhibition": "inactive"}, {"smiles": "O[C@H]1C=NC2(CC2)[C@H]1O", "inhibition": "inactive"}, {"smiles": "O[C@@H]1[C@@H](O)C=NC12CC2", "inhibition": "inactive"}]}, {"target": "T2, Beta-galactosidase (Aspergillus oryzae) (UniProt Q2U7N3)", "T2 sequence (whole entry)": "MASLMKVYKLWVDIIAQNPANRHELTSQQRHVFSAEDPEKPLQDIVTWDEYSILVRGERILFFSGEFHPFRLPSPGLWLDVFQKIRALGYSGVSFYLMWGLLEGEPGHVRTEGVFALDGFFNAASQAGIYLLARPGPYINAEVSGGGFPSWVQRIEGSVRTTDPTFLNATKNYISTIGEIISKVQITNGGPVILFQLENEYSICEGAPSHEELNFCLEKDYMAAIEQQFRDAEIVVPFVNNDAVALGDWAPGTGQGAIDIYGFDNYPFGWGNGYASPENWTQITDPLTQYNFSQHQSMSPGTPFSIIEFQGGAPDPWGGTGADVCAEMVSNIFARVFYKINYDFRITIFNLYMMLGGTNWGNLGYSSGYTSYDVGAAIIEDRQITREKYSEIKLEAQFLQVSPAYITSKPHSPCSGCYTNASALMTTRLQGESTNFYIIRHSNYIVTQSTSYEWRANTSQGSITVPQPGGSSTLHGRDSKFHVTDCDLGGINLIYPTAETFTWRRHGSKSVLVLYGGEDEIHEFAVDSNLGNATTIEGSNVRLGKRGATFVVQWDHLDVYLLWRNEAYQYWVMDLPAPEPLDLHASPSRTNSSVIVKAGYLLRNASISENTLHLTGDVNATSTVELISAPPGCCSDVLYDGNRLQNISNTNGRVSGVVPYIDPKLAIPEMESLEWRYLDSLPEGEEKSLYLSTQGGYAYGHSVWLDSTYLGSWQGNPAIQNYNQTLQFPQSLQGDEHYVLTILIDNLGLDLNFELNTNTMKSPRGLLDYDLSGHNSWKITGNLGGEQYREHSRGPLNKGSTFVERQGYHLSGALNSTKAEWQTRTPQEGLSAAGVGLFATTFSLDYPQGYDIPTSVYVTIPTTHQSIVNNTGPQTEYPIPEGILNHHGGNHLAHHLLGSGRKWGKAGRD", "assay": "Inhibition of Aspergillus oryzae beta-galactosidase at 1 mM", "conditions": "not given", "values": [{"smiles": "O[C@@H]1[C@@H](O)C2(CC2)NC[C@@H]1O", "inhibition": "inactive"}, {"smiles": "O[C@H]1[C@H](O)CNC2(CC2)[C@H]1O", "inhibition": "inactive"}, {"smiles": "O[C@H]1C=NC2(CC2)[C@H]1O", "inhibition": "inactive"}, {"smiles": "O[C@@H]1[C@@H](O)C=NC12CC2", "inhibition": "inactive"}]}, {"system": "Aspergillus niger", "assay": "Inhibition of Aspergillus niger amyloglucosidase at 1 mM", "conditions": "not given", "values": [{"smiles": "O[C@@H]1[C@@H](O)C2(CC2)NC[C@@H]1O", "inhibition": "inactive"}, {"smiles": "O[C@H]1[C@H](O)CNC2(CC2)[C@H]1O", "inhibition": "inactive"}, {"smiles": "O[C@H]1C=NC2(CC2)[C@H]1O", "inhibition": "inactive"}, {"smiles": "O[C@@H]1[C@@H](O)C=NC12CC2", "inhibition": "inactive"}]}, {"target": "T1, Tissue alpha-L-fucosidase (Bos taurus)", "conditions": "1 mM", "description": "Inhibition of bovine lysosomal alpha-L-fucosidase at 1 mM by para-nitrophenolate release assay", "values": [{"smiles": "C[C@@H]1NC[C@H](O)[C@H](O)[C@H]1O", "inhibition": "inactive"}]}, {"system": "Canavalia ensiformis", "assay": "Inhibition of jack bean beta-N-acetylglucosaminidase at 1 mM", "conditions": "not given", "values": [{"smiles": "O[C@@H]1[C@@H](O)C2(CC2)NC[C@@H]1O", "inhibition": "inactive"}, {"smiles": "O[C@H]1[C@H](O)CNC2(CC2)[C@H]1O", "inhibition": "inactive"}, {"smiles": "O[C@H]1C=NC2(CC2)[C@H]1O", "inhibition": "inactive"}, {"smiles": "O[C@@H]1[C@@H](O)C=NC12CC2", "inhibition": "inactive"}]}, {"target": "T3, Tissue alpha-L-fucosidase (Bos taurus, UniProt Q2KIM0)", "T3 sequence (Q2KIM0 whole entry)": "T1 sequence (whole entry)", "assay": "Inhibition of bovine kidney alpha-L-fucosidase by para-nitrophenolate release assay", "conditions": "not given", "units": {"Ki": "µM"}, "values": [{"smiles": "O[C@H]1[C@H](O)CNC2(CC2)[C@H]1O", "Ki": 18}, {"smiles": "C[C@@H]1N[C@@H](O)[C@@H](O)[C@H](O)[C@@H]1O", "Ki": 0.001}, {"smiles": "C[C@H]1NC[C@H](O)[C@H](O)[C@H]1O", "Ki": 1}, {"smiles": "C[C@@H]1N=C[C@H](O)[C@@H]1O", "Ki": 0.01}]}]}
